Experimental findings from patent publication US9867802B2, “Method of treating Scedosporium spp. infection” (BIODIEM LIMITED, priority 2012, dated 2018) are described below.

SMILES strings stand for the structures. Converted amounts (≈) assume the structure as drawn. Where two headings read alike, the source gives them in different places.

The test system of one series is S. apiospermum. Kind of series: In vitro susceptibility (MIC) against Scedosporium spp. In kind it is cell-based. On the procedure: (§1) In vitro susceptibility to Compound (1) was assessed against Scedosporium spp. A stock solution of 1 mg/ml of Compound (1) was made in 100% DMSO. The stock was aliquoted and stored at −80° C.
(§2) Three strains Scedosporium prolificans and 3 strains of S. apiospermum/P. boydii were tested. Each isolate was tested in duplicate and on two separate occasions.

In the next series the test system is Scedosporium prolificans. Described as above. It counts as cell-based. Conditions: for MIC: Lomentospora prolificans, duplicate on two occasions, read-out: Arithmetic Mean MIC (mg/L) of 4 readings. On the procedure:
as §1, §2

Another series has as its system P. boydii. The description is as above. In kind it is cell-based, Pseudallescheria boydii. The conditions noted are these: strain P. boydii 01-10-1391979, duplicate on two occasions, read-out: Arithmetic Mean MIC (mg/L) of 4 readings. On the procedure: as §1, §2

On to `O=[N+]([O-])/C=C/c1ccc2c(c1)OCO2` [Compound (2), 3,4-methylenedioxy-β-nitrostyrene], for which, in “Solubility profile” (acetone, alcohol, acetic acid and a majority of organic solvents), the “Solubility in organic solvents” value is “soluble”. Further, the Solubility in water entry in “Solubility profile” (water) is on record as “non-soluble”.

As to `C/C(=C\c1ccc2c(c1)OCO2)[N+](=O)[O-]` [Compound (1), 3,4-methylenedioxy-β-methyl-β-nitrostyrene], the MIC in the series with S. apiospermum (read-out: Arithmetic Mean MIC (mg/L) of 4 readings, strain S. apsiopermum 04-10-2013595, duplicate on two occasions) was 2 mg/L (≈ 9.65 µM); in the series with S. apiospermum (strain S. apiospermum 04-10-1932310, duplicate on two occasions, read-out: Arithmetic Mean MIC (mg/L) of 4 readings) it was 4 mg/L (≈ 19.3 µM); in the series with Scedosporium prolificans (strain S. prolificans 04-11-1472398) it was 2 mg/L (≈ 9.65 µM); in the series with Scedosporium prolificans (strain S. prolificans (Austin Pathology)), 1 mg/L (≈ 4.83 µM); with Scedosporium prolificans (strain S. prolificans MB 10028425), 2 mg/L (≈ 9.65 µM); with P. boydii, 4 mg/L (≈ 19.3 µM). In addition, the “Relative activity among Scedosporium spp.” value in the series with Scedosporium prolificans (comparison of species tested in Table 1) was “most active against S. prolificans”.
